The numbers were not newly measured in patent US20190015445A1, “INJECTION […] DIOXIDE AND METHOD FOR MAKING SAME” (priority 2016, published 2019), which cites them from elsewhere.

Read-outs that look alike come from different tables or passages of the source.

With `[O][Cl+][O-]` [chlorine dioxide], the “solubility of chlorine dioxide” value is, setting by setting: (at 20° C., aqueous solution) “about 2.9 g/L”; (at room temperature) 2900 µg/mL.
